# Experimental data taken from patent publication US9669049B2, “Compositions comprising gamma retrovirus vectors and methods of treating proliferative disorders” (Tocagen Inc., priority 2010, dated 2017).
# Like-named read-outs stand apart in the source and are kept apart here.
# B1: IFNβ: Recombinant mouse IFNβ (PBL Interferon Source) (protein, UniProt P01575 22-182, looked up)
# Interferon beta: INYKQLQLQERTNIRKCQELLEQLNGKINLTYRADFKIPMEMTEKMQKSYTAFAIQEMLQNVFLVFRNNFSSTGWNETIVVRLLDELHQQTVFLKTVLEEKQEERLTWEMSSTALHLKSYYWRVQRYLKLMKYNSYAWMVVRAEIFRNFLIIRRLTRNFQN
# Key:
# [1] = system: recurrent anaplastic oligodendroglioma; assay: Patient dog with spontaneous recurrent malignant glioma; assay type: in vivo; details: second cycle, 160 mg/kg/day, after fifth day
# Description: The tumor measured approximately 13 cm^3, and caused major lateral ventricle compression and significant midline shift. […] ProHance® (gadoteridol) was added to Toca 511 prior to injection to allow visualization of delivery by MRI. The volume of distribution of the vector was estimated to be approximately 10-12% of the tumor volume.
# The dog was treated with 5-FC at a divided dose of 130 mg/kg/day, by mouth, three times daily with food for 5 days. The dose was increased to 160 mg/kg/day for 2 more days (7 days of 5-FC total). […] After 21 days of viral spread, a second cycle of 5-FC was initiated at the higher dose of 160 mg/kg/day (divided, three times a day with food).
# The subject became more alert, active and remained clinically stable 13 weeks after injection of vector. The subject succumbed to a gastro-intestinal bleed at 15+ weeks, related to the extended administration of high dose steroids, and unrelated to the tumor. The estimated lifespan of the dog was no more than 3-4 weeks at the time of initial injection of the vector.
# [2] = system: cultured human glioma cells; assay type: cell-based; set-up: key: +: positive or negative effects have been observed
# [3] = system: cultured human plasmacytoid dendritic cells; assay: IFN production after in vitro stimulation of cultured human plasmacytoid dendritic cells; assay type: cell-based; set-up: key: +: positive or negative effects have been observed; −: positive or negative effects have been observed
# Tu2449 cells = assay: Bortezomib plus vector, intracranial Tu2449 glioma survival; assay type: in vivo, mouse; details: Bortezomib 1 mg/kg IP every 7 days; vector 6.3E4 TU/g IC; 5-FC cycles
# Description: On Day 0 and every 7 days, Groups 3 and 4 received Bortezomib treatment (1 mg/kg; 25 μg/mouse) IP. […] Survival was assessed for at least 4 cycles.
# [4] = system: cultured human glioma cells; assay: Initial viral spread in cultured human glioma cells by flow cytometric analysis; assay type: cell-based
# TLR3, 7, 8, 9 = details: cited from earlier work
# T98G = details: 0.1 and 1 μM, 28 days
# U-87MG = details: 0.1 and 1 μM, 28 days
# [5] = system: intracranial tumor models; assay: In vivo screening, IC tumor model; details: mouse
# [6] = Pilot study of white blood cell count suppression; assay type: in vivo; details: 400 mg/kg SC
# Description: (§1) Dosing Procedures. For Group 3 only, methylprednisolone acetate (Depo-Medrol), 400 mg/kg, was administered subcutaneously (SC) at day −3.
# [7] = Vector copies in tissues after intracranial injection with or without steroid; assay type: in vivo, mouse; details: right cerebrum, day 10; p<0.0001
# Description: as §1
# Toca 511 or vehicle was administered by stereotaxic injection into the right frontal lobe. After anesthetizing the mice and preparing the skull, a small burr hole was drilled through the bone at coordinates AP=+0.5 mm and ML=−2.5 mm from bregma. […] After a hold of 5 minutes, the syringe was withdrawn, the hole sealed with bone wax, the skin closed, and the animal recovered from surgery. To minimize discomfort, ketoprofen was administered SC.
# Tissue collection. On day 10, all animals were euthanized and selected tissues and fluids collected using disposable equipment to minimize possible cross-contamination of vector negative by vector positive tissues. […] Assays were performed in triplicate.
# parental CT26 cells = assay: Viral replication kinetics in CT26 cells with exogenous IFNα; details: 1,340 units/mL daily; MOI 0.1 and 1
# parental Tu2449 cells = assay: Viral replication kinetics in Tu2449 cells with exogenous IFNβ; details: 500 units/mL daily; MOI 0.1 and 1
molecule,measurement,setting,value
"Nc1nc(=O)[nH]cc1F [5-FC, 5-fluorocytosine]",adverse event stopping the drug,[1],development of rash
O=C(NCCCNc1nc(Nc2cccc(NC(=O)N3CCCC3)c2)ncc1I)c1cccs1 [BX795],Efficacy,[2],+
same,activity or benefit observed in the screening experiments,RRV,activity was observed
CC(C)C[C@H](NC(=O)[C@H](Cc1ccccc1)NC(=O)c1cnccn1)B(O)O [Bortezomib],Efficacy,[3],+
same,"survival of Bortezomib and vector compared to vector, vehicle, or Bortezomib alone",Tu2449 cells,statistically significant survival advantage
same,activity or benefit observed in the screening experiments,RRV,activity was observed
C#Cc1cccc(Nc2ncnc3cc(OC)c(OCCCCCCC(=O)NO)cc23)c1 [CUDU-101],Efficacy,[4],−
CCN(CC)CCCC(C)Nc1ccnc2cc(Cl)ccc12 (centres unmarked) [Chloroquine],IC50,"TLR3, 7, 8, 9; read-out: Dosage/IC50, head does not say whether dosage or IC50",20 µM
same,Dosage/IC50,"TLR3, 7, 8, 9; same value in mass units",10 µg/mL
N#CCNC(=O)c1ccc(-c2ccnc(Nc3ccc(N4CCOCC4)cc3)n2)cc1 [Cyt387],Efficacy,[4],−
C[C@@H]1C[C@H]2[C@@H]3CCC4=CC(=O)C=C[C@]4(C)[C@@]3(F)[C@@H](O)C[C@]2(C)[C@@]1(O)C(=O)CO [Dexamethasone],cell toxicity,T98G,No cell toxicity was observed
same,cell toxicity,U-87MG,No cell toxicity was observed
same,Efficacy,[4],+
Cc1cc(Cl)ccc1OCCCC(=O)NO [Droxinostat],Efficacy,[4],−
CCN(CC)Cc1ccc2cc(COC(=O)Nc3ccc(C(=O)NO)cc3)ccc2c1 [ITF2357],Efficacy,[4],−
O=C1Nc2ccc3ncsc3c2/C1=C/c1cnc[nH]1 [Imidazolo-oxindole],Efficacy,[4],−
CCc1c2c(nc3ccc(OC(=O)N4CCC(N5CCCCC5)CC4)cc13)-c1cc3c(c(=O)n1C2)COC(=O)[C@]3(O)CC [Irinotecan],Outcome summary IC tumor model,[5],No survival improvement
Nc1ccccc1NC(=O)c1ccc(CNC(=O)OCc2cccnc2)cc1 [MS-275],Efficacy,[2],+
same,activity or benefit observed in the screening experiments,RRV,activity was observed
same,Efficacy,[4],−
CC#C[C@]1(O)CC[C@H]2[C@@H]3CCC4=CC(=O)CCC4=C3[C@@H](c3ccc(N(C)C)cc3)C[C@@]21C [Mifepristone],activity or benefit observed in the screening experiments,RRV,activity was observed
same,Efficacy,[4],+
CC(=O)OCC(=O)[C@@]1(O)CC[C@H]2[C@@H]3C[C@H](C)C4=CC(=O)C=C[C@]4(C)[C@H]3[C@@H](O)C[C@@]21C [methylprednisolone acetate],duration of white blood cell count suppression below normal range,[6],at least 10 days
same,increase of vector copies with steroids over no steroid,[7],more than 40 fold
IFNα,effect on viral spread (% GFP positive cells),parental CT26 cells,attenuates viral spread
B1,effect on viral spread (% GFP positive cells),parental Tu2449 cells,attenuates viral spread
